Results on 4 compounds are retold here after patent publication US20160151370A1, “Substituted Benzylpyrazoles” (BAYER PHARMA AKTIENGESELLSCHAFT, priority 2013, published 2016).

The target in test [1] is T1, catalytic domain of human Bub1 (amino acids 704-1085) (Homo sapiens, UniProt O43683).
T1 construct: catalytic domain of human Bub1 (amino acids 704-1085); His6 (N); made in house; host or cells: Hi5 insect cells
Kind of test: Bub1 kinase assay (TR-FRET). The conditions noted are these: 10 μM ATP, 1 μM peptide substrate, median value, read-out: Biological Assay 1: Bub1 kinase assay median IC50. It is filed as biochemical. The source says: Bub1-inhibitory activities of compounds described in the present invention were quantified using a time-resolved fluorescence energy transfer (TR-FRET) kinase assay which measures phosphorylation of the synthetic peptide Biotin-Ahx-[…] (C-terminus in amide form), purchased from e.g. Biosyntan (Berlin, Germany) by the (recombinant) catalytic domain of human Bub1 (amino acids 704-1085), expressed in Hi5 insect cells with an N-terminal His6-tag and purified by affinity-(Ni-NTA) and size exclusion chromatography.
In a typical assay 11 different concentrations of each compound (0.1 nM, 0.33 nM, 1.1 nM, 3.8 nM, 13 nM, 44 nM, 0.15 μM, 0.51 μM, 1.7 μM, 5.9 μM and 20 μM) were tested in duplicate within the same microtiter plate. To this end, 100-fold concentrated compound solutions (in DMSO) were previously prepared by serial dilution (1:3.4) of 2 mM stocks in a clear low volume 384-well source microtiter plate (Greiner Bio-One, Frickenhausen, Germany), from which 50 nL of compounds were transferred into a black low volume test microtiter plate from the same supplier. Subsequently, 2 μL of Bub1 (the final concentration of Bub1 was adjusted depending on the activity of the enzyme lot in order to be within the linear dynamic range of the assay: typically ˜200 ng/mL were used) in aqueous assay buffer [50 mM Tris/HCl pH 7.5, 10 mM magnesium chloride (MgCl2), 200 mM potassium chloride (KCl), 1.0 mM dithiothreitol (DTT), 0.1 mM sodium ortho-vanadate, 1% (v/v) glycerol, 0.01% (w/v) bovine serum albumine (BSA), 0.005% (v/v) Trition X-100 (Sigma), 1× Complete EDTA-free protease inhibitor mixture (Roche)] were added to the compounds in the test plate and the mixture was incubated for 15 min at 22° C. to allow pre-equilibration of the putative enzyme-inhibitor complexes before the start of the kinase reaction, which was initiated by the addition of 3 μL 1.67-fold concentrated solution (in assay buffer) of adenosine-tri-phosphate (ATP, 10 μM final concentration) and peptide substrate (1 μM final concentration). […] Subsequently, the amount of product was evaluated by measurement of the resonance energy transfer from the Eu-chelate-antibody complex recognizing the Phosphoserine residue to the streptavidin-XL665 bound to the biotin moiety of the peptide. To this end, the fluorescence emissions at 620 nm and 665 nm after excitation at 330-350 nm were measured in a TR-FRET plate reader, e.g. a Rubystar or Pherastar (both from BMG Labtechnologies, Offenburg, Germany) or a Viewlux (Perkin-Elmer) and the ratio of the emissions (665 nm/622 nm) was taken as indicator for the amount of phosphorylated substrate. […] IC50 values were calculated by fitting the normalized inhibition data to a 4-parameter logistic equation (Minimum, Maximum, IC50, Hill; Y=Max+(Min−Max)/(1+(X/IC50)Hill)).

The subject of test [2] is HeLa human cervical cancer cell line. Kind of test: Proliferation assay (crystal violet staining). It counts as cell-based. As to conditions: 96 h, 4 days incubation, median value, read-out: Biological Assay 2: Proliferation assay (HeLa cell line) median IC50.
Method: Cultivated tumor cells (cells were ordered from ATCC) were plated at a density of 3000 cells/well in a 96-well multititer plate in 200 μL of growth medium supplemented 10% fetal calf serum. After 24 hours, the cells of one plate (zero-point plate) were stained with crystal violet (see below), while the medium of the other plates was replaced by fresh culture medium (200 μL), to which the test substances were added in various concentrations (0 μM, as well as in the range of 0.001-10 μM; the final concentration of the solvent dimethyl sulfoxide was 0.5%). The cells were incubated for 4 days in the presence of test substances. Cell proliferation was determined by staining the cells with crystal violet: the cells were fixed by adding 20 μL/measuring point of an 11% glutaric aldehyde solution for 15 minutes at room temperature. After three washing cycles of the fixed cells with water, the plates were dried at room temperature. The cells were stained by adding 100 μL/measuring point of a 0.1% crystal violet solution (pH 3.0). […] Absorbtion was determined by photometry at a wavelength of 595 nm. The change of cell number, in percent, was calculated by normalization of the measured values to the absorbtion values of the zero-point plate (=0%) and the absorbtion of the untreated (0 μm) cells (=100%). The IC50 values were determined by means of a 4 parameter fit.

T1 sequence (O43683 704-1085): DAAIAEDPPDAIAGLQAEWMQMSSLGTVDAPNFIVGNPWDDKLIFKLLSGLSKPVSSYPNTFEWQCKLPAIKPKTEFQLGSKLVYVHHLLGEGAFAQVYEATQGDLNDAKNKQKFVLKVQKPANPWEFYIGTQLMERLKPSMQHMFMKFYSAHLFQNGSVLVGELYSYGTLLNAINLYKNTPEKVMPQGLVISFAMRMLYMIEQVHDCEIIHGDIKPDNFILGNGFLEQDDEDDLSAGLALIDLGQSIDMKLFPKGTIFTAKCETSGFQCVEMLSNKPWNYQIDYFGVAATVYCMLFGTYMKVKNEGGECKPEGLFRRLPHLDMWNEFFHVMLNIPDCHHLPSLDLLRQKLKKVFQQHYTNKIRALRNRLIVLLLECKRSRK

As for `CCOc1cc(F)c(Cn2nc(-c3ncc(OCCCS(C)(=N)=O)c(Nc4ccncc4)n3)c(C)c2C2CC2)c(F)c1` (racemic) [Example 2-2-1, 2-[5-cyclopropyl-1-(4-ethoxy-2,6-difluorobenzyl)-4-methyl-1H-pyrazol-3-yl]-5-[3-(S-methylsulfonimidoyl)propoxy]-N-(pyridin-4-yl)pyrimidin-4-amine], the results for the IC50 in test [1] and in test [2] were 8.4 nM and 8200 nM, respectively.
Turning to `CCOc1cc(F)c(Cn2nc(-c3ncc(OCCCS(C)(=N)=O)c(Nc4ccncc4)n3)c(C)c2C2CC2)c(F)c1` (single isomer, unassigned; (+)) [Example 2-2-3, (+)-2-[5-cyclopropyl-1-(4-ethoxy-2,6-difluorobenzyl)-4-methyl-1H-pyrazol-3-yl]-5-[3-(S-methylsulfonimidoyl)propoxy]-N-(pyridin-4-yl)pyrimidin-4-amine], in test [1], the IC50 is 5.7 nM.
As to `CCOc1cc(F)c(Cn2nc(-c3ncc(OCCCS(C)(=N)=O)c(Nc4ccncc4)n3)c(C)c2C2CC2)c(F)c1` (single isomer, unassigned; (-)) [Example 2-2-2, (−)-2-[5-cyclopropyl-1-(4-ethoxy-2,6-difluorobenzyl)-4-methyl-1H-pyrazol-3-yl]-5-[3-(S-methylsulfonimidoyl)propoxy]-N-(pyridin-4-yl)pyrimidin-4-amine], the IC50 in test [1] came to 9.5 nM.
The same measure, in the same setting: the figure for `CCOc1cc(F)c(Cn2nc(-c3ncc(OCCCS(C)(=O)=NC(=O)C(F)(F)F)c(Nc4ccncc4)n3)c(C)c2C2CC2)c(F)c1` (centres unmarked) [Example 2-1-1, N-{[3-({2-[5-cyclopropyl-1-(4-ethoxy-2,6-difluorobenzyl)-4-methyl-1H-pyrazol-3-yl]-4-(pyridin-4-ylamino)pyrimidin-5-yl}oxy)propyl](methyl)oxido-λ^6-sulfanylidene}-2,2,2-trifluoroacetamide] is 11 nM.
